Reference: patent US12421249B2, “Inhibitors of APOL1 and methods of using same” (Vertex Pharmaceuticals Incorporated, priority 2020, dated 2025)
Where two headings read alike, the source gives them in different places.

What was measured:
[1] = molecular target: T1, APOL1 (Homo sapiens, UniProt O14791); test: Multi-Tox Assay (MultiTox-Fluor Multiplex Cytotoxicity Assay in tet-inducible APOL1 T-REx-HEK293 cells; Table 46 does not say which APOL1 variant G0/G1/G2); format: cell-based; conditions: APOL1 variant not given; for IC50: IP50 = IC50 for cell proliferation
T1 sequence (O14791 1-398 S342G/I384M): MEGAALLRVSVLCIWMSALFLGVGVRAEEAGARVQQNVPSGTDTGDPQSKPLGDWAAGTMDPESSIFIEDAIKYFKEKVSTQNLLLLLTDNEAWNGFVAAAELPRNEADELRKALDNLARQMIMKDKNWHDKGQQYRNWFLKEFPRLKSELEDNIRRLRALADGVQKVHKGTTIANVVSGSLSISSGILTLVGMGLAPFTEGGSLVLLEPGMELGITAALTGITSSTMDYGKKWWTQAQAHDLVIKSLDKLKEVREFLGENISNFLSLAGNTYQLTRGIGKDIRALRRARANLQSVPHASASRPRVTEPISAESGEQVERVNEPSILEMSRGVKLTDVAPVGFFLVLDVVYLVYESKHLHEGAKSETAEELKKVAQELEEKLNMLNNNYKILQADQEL

[2] = molecular target: T2, APOL1 G1 (Homo sapiens, UniProt O14791, I384M/S342G); test: Trypanosoma brucei brucei Lysis Assay Using APOL1 Recombinant Protein (AlamarBlue viability readout); format: cell-based; conditions: for Emax: read-out: Trypanosome Assay Max Activity (%)
T2 sequence (O14791 28-398 S342G/I384M): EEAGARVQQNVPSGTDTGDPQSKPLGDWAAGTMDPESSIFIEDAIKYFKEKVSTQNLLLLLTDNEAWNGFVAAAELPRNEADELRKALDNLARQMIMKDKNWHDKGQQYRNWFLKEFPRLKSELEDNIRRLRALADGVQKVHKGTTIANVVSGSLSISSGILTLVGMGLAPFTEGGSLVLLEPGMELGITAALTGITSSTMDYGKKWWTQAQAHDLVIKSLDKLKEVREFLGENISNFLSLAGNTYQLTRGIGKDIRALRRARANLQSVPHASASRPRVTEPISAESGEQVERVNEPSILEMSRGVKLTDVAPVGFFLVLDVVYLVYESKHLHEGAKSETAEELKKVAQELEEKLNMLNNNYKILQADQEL
In short: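 Percent viability comes from AlamarBlue (resazurin→resorufin) fluorescence interpolated on a standard curve of known parasite numbers, with no-APOL1 wells as 100%. Parasites (Lister 427 bloodstream form, 120,000/well, serum-free assay medium) meet 0.05 μg/mL APOL1 (~EC90). Compounds span a 10-point series, 0.1% DMSO final.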

[3] = Trypanosome Assay, IP50 = IC50 for cell proliferation, read-out: Trypanosome Assay IP50

CCc1cc2c(s1)C(C)COC21C[C@@H](c2cn(C)nn2)N[C@@H](C)C1 (stereo in doubt) [Compound 10]
Multi-Tox Assay Max Activity (%) [1]: 99.7%
IC50 [1]: < 50 nM
IC50 [2, 3]: 50 to 500 nM
Emax ([2]; Trypanosome Assay): 101%

CCc1cc2c(s1)C(C)COC21C[C@@H](c2cn(C)nn2)N[C@@H](C)C1 (stereo in doubt) [Compound 11]
IC90 [1]: < 50 nM
Multi-Tox Assay Max Activity (%) [1]: 99.3%
IC50 [1]: < 50 nM
Trypanosome Assay Max Activity (%) ([2]; Trypanosome Assay): 101.5%
IC50 [2, 3]: < 50 nM

CC1COC2(C[C@@H](c3cn(C)nn3)N[C@@H](C)C2)c2cc(Cl)sc21 (stereo in doubt) [Compound 12]
Multi-Tox Assay Max Activity (%) [1]: 99.3%
IC50 [1]: < 50 nM
IC50 [2, 3]: < 50 nM
Emax ([2]; Trypanosome Assay): 102%

CC1COC2(C[C@@H](c3cn(C)nn3)N[C@@H](C)C2)c2cc(Cl)sc21 (stereo in doubt) [Compound 13]
IC90 [1]: < 50 nM
Multi-Tox Assay Max Activity (%) [1]: 99.0%
IC50 [1]: < 50 nM
Trypanosome Assay Max Activity (%) ([2]; Trypanosome Assay): 100.0%
IC50 [2, 3]: < 50 nM

CC1COC2(C[C@@H](c3cn(C)nn3)N[C@@H](C)C2)c2cc(C(F)(F)F)sc21 (stereo in doubt) [Compound 14]
IC50 [1]: < 50 nM
IC50 [2, 3]: < 50 nM
Emax ([2]; Trypanosome Assay): 102%

C[C@H]1CC2(C[C@@H](c3cn(C)nn3)N1)OCC(C)(C)c1sc(Cl)cc12 (stereo in doubt) [Compound 15]
Multi-Tox Assay Max Activity (%) [1]: 99.0%
IC50 [1]: < 50 nM
IC50 [2, 3]: < 50 nM
Emax ([2]; Trypanosome Assay): 101%

C[C@H]1CC2(C[C@@H](c3cn(C)nn3)N1)OCC(C)(C)c1sc(C(F)(F)F)cc12 (stereo in doubt) [Compound 16]
Multi-Tox Assay Max Activity (%) [1]: 100.0%
IC50 [1]: < 50 nM
IC50 [2, 3]: 50 to 500 nM
Emax ([2]; Trypanosome Assay): 99.5%

C[C@H]1C[C@@]2(C[C@@H](c3ccc(O)c(F)c3)N1)OCCc1cc(Cl)sc12 (stereo in doubt) [Compound 51]
Multi-Tox Assay Max Activity (%) [1]: 99.7%
IC50 [1]: < 50 nM
IC50 [2, 3]: < 50 nM
Emax ([2]; Trypanosome Assay): 102%

C[C@H]1C[C@@]2(C[C@@H](c3cnc(-c4cnn(C)c4)nc3)N1)OCCc1cc(Cl)sc12 (stereo in doubt) [Compound 61]
IC50 [1]: < 50 nM
IC50 [2, 3]: < 50 nM
Emax ([2]; Trypanosome Assay): 105%

C[C@H]1C[C@@]2(C[C@@H](c3ccc(O)nn3)N1)OCCc1cc(Cl)sc12 (stereo in doubt) [Compound 86]
IC50 [1]: < 50 nM
IC50 [2, 3]: < 50 nM
Emax ([2]; Trypanosome Assay): 112%

CCc1cc([C@@H]2C[C@]3(C[C@H](C)N2)OCCc2cc(Cl)sc23)on1 (stereo in doubt) [Compound 91]
IC50 [1]: < 50 nM
IC50 [2, 3]: < 50 nM
Emax ([2]; Trypanosome Assay): 110%

C[C@H]1C[C@@]2(C[C@@H](c3cnn(C4CCS(=O)(=O)C4)c3)N1)OCCc1cc(Cl)sc12 (stereo in doubt) [Compound 97]
IC50 [1]: < 50 nM
IC50 [2, 3]: < 50 nM
Emax ([2]; Trypanosome Assay): 104%

C[C@H]1C[C@@]2(C[C@@H](c3cc(C4CCOCC4)[nH]n3)N1)OCCc1cc(Cl)sc12 (stereo in doubt) [Compound 114]
Multi-Tox Assay Max Activity (%) [1]: 99.7%
IC50 [1]: < 50 nM
IC50 [2, 3]: 50 to 500 nM
Emax ([2]; Trypanosome Assay): 95%

C[C@H]1C[C@@]2(C[C@@H](c3cc(C(F)(F)F)[nH]n3)N1)OCCc1cc(Cl)sc12 (stereo in doubt) [Compound 119]
Multi-Tox Assay Max Activity (%) [1]: 99.7%
IC50 [1]: < 50 nM
IC50 [2, 3]: 50 to 500 nM
Emax ([2]; Trypanosome Assay): 97.5%

C[C@H]1C[C@@]2(C[C@@H](c3cccn4ccnc34)N1)OCCc1cc(Cl)sc12 (stereo in doubt) [Compound 143]
Multi-Tox Assay Max Activity (%) [1]: 98.0%
IC50 [1]: 50 to 500 nM
IC50 [2, 3]: 50 to 500 nM
Emax ([2]; Trypanosome Assay): 101%

C[C@H]1CC2(CC(c3cn(C)cn3)N1)OCC(O)c1cc(Cl)sc12 (stereo in doubt) [Compound 178]
IC50 [1]: < 50 nM
IC50 [2, 3]: < 50 nM
Emax ([2]; Trypanosome Assay): 101%

C[C@H]1CC2(CC(c3cn(C)cn3)N1)OCC(O)c1cc(Cl)sc12 (stereo in doubt) [Compound 179]
IC90 [1]: < 50 nM
Multi-Tox Assay Max Activity (%) [1]: 99.0%
IC50 [1]: < 50 nM
Trypanosome Assay Max Activity (%) ([2]; Trypanosome Assay): 119.5%
IC50 [2, 3]: < 50 nM

C[C@H]1C[C@@]2(C[C@@H](c3cn(C)nn3)N1)OCCc1cc(Cl)sc12 [Compound 1, (2′S,6′S,7S)-2-chloro-2′-methyl-6′-(1-methyltriazol-4-yl)spiro[4,5-dihydrothieno[2,3-c]pyran-7,4′-piperidine]]
IC50 [1]: < 50 nM
IC50 [2, 3]: < 50 nM
Emax ([2]; Trypanosome Assay): 124%

C[C@H]1C[C@@]2(C[C@@H](c3cn(C)nn3)N1)OCCc1cc(C(F)(F)F)sc12 [Compound 2, (2′S,6′S,7S)-2′-methyl-6′-(1-methyltriazol-4-yl)-2-(trifluoromethyl)spiro[4,5-dihydrothieno[2,3-c]pyran-7,4′-piperidine]]
IC50 [1]: < 50 nM
IC50 [2, 3]: < 50 nM
Emax ([2]; Trypanosome Assay): 117%

C[C@H]1C[C@@]2(C[C@@H](c3cn(C)nn3)N1)OCCc1sc(C(F)(F)F)cc12 [Compound 8, (2′S,4S,6′S)-2′-methyl-6′-(1-methyltriazol-4-yl)-2-(trifluoromethyl)spiro[6,7-dihydrothieno[3,2-c]pyran-4,4′-piperidine]]
Multi-Tox Assay Max Activity (%) [1]: 100.0%
IC50 [1]: < 50 nM
IC50 [2, 3]: 50 to 500 nM
Emax ([2]; Trypanosome Assay): 106%

CC1CC2(CC(c3cnn(CCS(C)(=O)=O)c3)N1)OCCc1sc(C(F)(F)F)cc12 (centres unmarked) [Compound 9]
Multi-Tox Assay Max Activity (%) [1]: 100.0%
IC50 [1]: < 50 nM
IC50 [2, 3]: 50 to 500 nM
Emax ([2]; Trypanosome Assay): 108%

C[C@H]1C[C@@]2(C[C@@H](c3cn(C)nn3)N1)OCCc1c2sc(C(F)(F)F)c1CO [Compound 17, [(2′S,6′S, 7S)-2′-methyl-6′-(1-methyltriazol-4-yl)-2-(trifluoromethyl)spiro[4,5-dihydrothieno[2,3-c]pyran-7,4′-piperidine]-3-yl]methanol]
IC50 [1]: < 50 nM
IC50 [2, 3]: 50 to 500 nM
Emax ([2]; Trypanosome Assay): 102%

C[C@H]1C[C@@]2(C[C@@H](c3cnn(CC(=O)N(C)C)c3)N1)OCCc1cc(Cl)sc12 [Compound 18, 2-[4-[(2S,6S)-2-chloro-6′-methyl-spiro[4,5-dihydrothieno[2,3-c]pyran-7,4′-piperidine]-2′-yl]pyrazol-1-yl]-N,N-dimethyl-acetamide]
IC50 [1]: < 50 nM
IC50 [2, 3]: 50 to 500 nM
Emax ([2]; Trypanosome Assay): 103%

C[C@H]1C[C@@]2(C[C@@H](c3cnn(C)c3)N1)OCCc1cc(Cl)sc12 [Compound 19, (2S)-2-chloro-2′-methyl-6′-(1-methylpyrazol-4-yl)spiro[4,5-dihydrothieno[2,3-c]pyran-7,4′-piperidine]]
IC50 [1]: < 50 nM
IC50 [2, 3]: < 50 nM
Emax ([2]; Trypanosome Assay): 107%

CC1CC2(CC(c3ccc4c(c3)oc(=O)n4C)N1)OCCc1cc(Cl)sc12 (centres unmarked) [Compound 23]
IC90 [1]: < 50 nM
Multi-Tox Assay Max Activity (%) [1]: 99.7%
IC50 [1]: < 50 nM
IC50 [2, 3]: < 50 nM
Emax ([2]; Trypanosome Assay): 116%

CC1CC2(CC(c3cccc(C#N)c3)N1)OCCc1cc(Cl)sc12 (centres unmarked) [Compound 24]
Multi-Tox Assay Max Activity (%) [1]: 100.0%
IC50 [1]: < 50 nM
IC50 [2, 3]: < 50 nM
Emax ([2]; Trypanosome Assay): 107%

CNC(=O)c1cccc(C2CC3(CC(C)N2)OCCc2cc(Cl)sc23)c1 (centres unmarked) [Compound 27]
IC50 [1]: < 50 nM
IC50 [2, 3]: < 50 nM
Emax ([2]; Trypanosome Assay): 112%

CC1CC2(CC(c3ccncc3)N1)OCCc1cc(Cl)sc12 (centres unmarked) [Compound 30]
Multi-Tox Assay Max Activity (%) [1]: 99.0%
IC50 [1]: < 50 nM
IC50 [2]: < 50 nM
Emax [2]: 124%

CC1CC2(CC(c3cn[nH]c3)N1)OCCc1cc(Cl)sc12 (centres unmarked) [Compound 31]
IC90 [1]: < 50 nM
Multi-Tox Assay Max Activity (%) [1]: 100.0%
IC50 [1]: < 50 nM
IC50 [2, 3]: < 50 nM
Emax ([2]; Trypanosome Assay): 123%

CC1CC2(CC(c3cc(F)cc(C#N)c3)N1)OCCc1cc(Cl)sc12 (centres unmarked) [Compound 33]
IC50 [1]: < 50 nM
IC50 [2, 3]: < 50 nM
Emax ([2]; Trypanosome Assay): 111%

COc1ccc(C2CC3(CC(C)N2)OCCc2cc(Cl)sc23)nc1 (centres unmarked) [Compound 34]
Multi-Tox Assay Max Activity (%) [1]: 99.0%
IC50 [1]: < 50 nM
IC50 [2, 3]: < 50 nM
Emax ([2]; Trypanosome Assay): 115%

CC1CC2(CC(c3ccc4[nH]ncc4c3)N1)OCCc1cc(Cl)sc12 (centres unmarked) [Compound 35]
IC50 [1]: < 50 nM
IC50 [2, 3]: < 50 nM
Emax ([2]; Trypanosome Assay): 111%

CC(=O)Nc1ccc(C2CC3(CC(C)N2)OCCc2cc(Cl)sc23)cn1 (centres unmarked) [Compound 37]
IC50 [1]: < 50 nM
IC50 [2, 3]: < 50 nM
Emax ([2]; Trypanosome Assay): 114%

CC1CC2(CC(c3cnn(C)n3)N1)OCCc1cc(Cl)sc12 (centres unmarked) [Compound 38]
IC50 [1]: < 50 nM
IC50 [2, 3]: < 50 nM
Emax ([2]; Trypanosome Assay): 112%

CC1CC2(CC(c3ccc4c(c3)OCC(=O)N4)N1)OCCc1cc(Cl)sc12 (centres unmarked) [Compound 39]
IC50 [1]: < 50 nM
IC50 [2, 3]: < 50 nM
Emax ([2]; Trypanosome Assay): 116%
